{"source": "patent US8735431B2", "about": "“Active compound combinations having insecticidal properties” (priority 2003, dated 2014)", "assay_type_in_all_cases": "in vivo", "key": {"Aphis gossypii": {"tested_on": "Aphis gossypii", "assay": "Aphis gossypii test (cotton leaves dipped)", "conditions": "4 ppm", "protocol": "(§1) To produce a suitable preparation of active compound, 1 part by weight of active compound is mixed with the stated amounts of solvent and emulsifier, and the concentrate is diluted with emulsifier-containing water to the desired concentration.\nCotton leaves (Gossypium hirsutum) which are heavily infested by the cotton aphid (Aphis gossypii) are treated by being dipped into the preparation of active compound of the desired concentration. After the desired period of time, the kill in % is determined. 100% means that all aphids have been killed; 0% means that none of the aphids have been killed. The determined kill ratios are entered into Colby's formula (see page 39)."}, "[1]": {"tested_on": "Plutella xylostella, normally sensitive strain", "assay": "Plutella xylostella test (normally sensitive strain)", "protocol": "as §1\nCabbage leaves (Brassica oleracea) are treated by being dipped into the preparation of active compound of the desired concentration and are populated with caterpillars of the diamondback moth (Plutella xylostella, normally sensitive strain) while the leaves are still moist.\n(§2) After the desired period of time, the kill in % is determined. 100% means that all caterpillars have been killed; 0% means that none of the caterpillars have been killed. The determined kill ratios are entered into Colby's formula (see page 39)."}, "[2]": {"tested_on": "Plutella xylostella, resistant strain", "assay": "Plutella xylostella test (resistant strain)", "protocol": "as §1\nCabbage leaves (Brassica oleracea) are treated by being dipped into the preparation of active compound of the desired concentration and are populated with caterpillars of the diamondback moth (Plutella xylostella, resistant strain) while the leaves are still moist.\nas §2"}, "Myzus persicae": {"tested_on": "Myzus persicae", "assay": "Myzus persicae test (cabbage leaves dipped)", "conditions": "20 ppm", "protocol": "as §1\nCabbage leaves (Brassica oleracea) which are heavily infested by the green peach aphid (Myzus persicae) are treated by being dipped into the preparation of active compound of the desired concentration.\nAfter the desired period of time, the kill in % is determined. 100% means that all aphids have been killed; 0% means that none of the aphids have been killed. The determined kill ratios are entered into Colby's formula (see page 39)."}, "[3]": {"tested_on": "Phaedon cochleariae larvae", "assay": "Phaedon cochleariae larvae test (cabbage leaves dipped)", "protocol": "as §1\nCabbage leaves (Brassica oleracea) are treated by being dipped into the preparation of active compound of the desired concentration and are populated with larvae of the mustard beetle (Phaedon cochleariae) while the leaves are still moist.\nAfter the desired period of time, the kill in % is determined. 100% means that all beetle larvae have been killed; 0% means that none of the beetle larvae have been killed. The determined kill ratios are entered into Colby's formula (see page 39)."}, "Spodoptera exigua": {"tested_on": "Spodoptera exigua", "assay": "Spodoptera exigua test (cabbage leaves dipped)", "protocol": "as §1\nCabbage leaves (Brassica oleracea) are treated by being dipped into the preparation of active compound of the desired concentration and are populated with caterpillars of the beet army worm (Spodoptera exigua) while the leaves are still moist.\nas §2"}, "Heliothis armigera": {"tested_on": "Heliothis armigera", "assay": "Heliothis armigera test (soybean shoots dipped)", "protocol": "as §1\nSoybean shoots (Glycine max) are treated by being dipped into the preparation of active compound of the desired concentration and are populated with caterpillars of the cotton bollworm (Heliothis armigera) while the leaves are still moist.\nas §2"}}, "data": [{"smiles": "N#Cc1nn(-c2c(Cl)cc(C(F)(F)F)cc2Cl)c(N)c1[S+]([O-])C(F)(F)F", "note": "(stereo not drawn) [(2-16) fipronil, fipronil, reference compound]", "values": [{"measurement": "Kill rate in % after 6d found", "setting": "Aphis gossypii", "result": 0, "unit": "%"}, {"measurement": "Kill rate in % after 6d found", "setting": "[1]; 0.0064 ppm", "result": 15, "unit": "%"}, {"measurement": "Kill rate in % after 4d found", "setting": "[2]; 0.0064 ppm", "result": 0, "unit": "%"}]}, {"smiles": "CC[S+]([O-])c1c(C#N)nn(-c2c(Cl)cc(C(F)(F)F)cc2Cl)c1N", "note": "(stereo not drawn) [(2-17) ethiprole, ethiprole, reference compound]", "values": [{"measurement": "Kill rate in % after 1d found", "setting": "Myzus persicae", "result": 50, "unit": "%"}]}, {"smiles": "COC(=O)N(C(=O)N1COC2(C(=O)OC)Cc3cc(Cl)ccc3C2=N1)c1ccc(OC(F)(F)F)cc1", "note": "(stereo not drawn) [(2-21) indoxacarb, indoxacarb, reference compound]", "values": [{"measurement": "Kill rate in % after 6d found", "setting": "[3]; 0.032 ppm", "result": 10, "unit": "%"}, {"measurement": "Kill rate in % after 6d found", "setting": "Spodoptera exigua; 0.16 ppm", "result": 70, "unit": "%"}]}, {"smiles": "Cc1cc(Cl)cc(C(=O)NC(C)C)c1NC(=O)c1cc(C(F)(F)F)nn1-c1ncccc1Cl", "note": "[Example I-1-9]", "values": [{"measurement": "Kill rate in % after 6d found", "setting": "[3]; 0.0064 ppm", "result": 0, "unit": "%"}, {"measurement": "Kill rate in % after 6d found", "setting": "Aphis gossypii", "result": 10, "unit": "%"}, {"measurement": "Kill rate in % after 1d found", "setting": "Myzus persicae", "result": 0, "unit": "%"}, {"measurement": "Kill rate in % after 6d found", "setting": "[1]; 0.00128 ppm", "result": 0, "unit": "%"}, {"measurement": "Kill rate in % after 4d found", "setting": "[1]; 0.16 ppm, 4 d", "result": 0, "unit": "%"}, {"measurement": "Kill rate in % after 4d found", "setting": "[2]; 0.00128 ppm", "result": 0, "unit": "%"}, {"measurement": "Kill rate in % after 6d found", "setting": "[2]; 0.032 ppm, 6 d", "result": 10, "unit": "%"}, {"measurement": "Kill rate in % after 6d found", "setting": "Heliothis armigera; 0.0064 ppm", "result": 20, "unit": "%"}, {"measurement": "Kill rate in % after 3d found", "setting": "Heliothis armigera; 0.032 ppm, 3 d", "result": 45, "unit": "%"}, {"measurement": "Kill rate in % after 6d found", "setting": "Heliothis armigera; 0.032 ppm", "result": 0, "unit": "%"}, {"measurement": "Kill rate in % after 6d found", "setting": "Spodoptera exigua; 0.0064 ppm", "result": 15, "unit": "%"}, {"measurement": "Kill rate in % after 6d found", "setting": "Spodoptera exigua; 0.032 ppm", "result": 10, "unit": "%"}]}]}
